Test results from PubChem BioAssay (NCI).
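Method: 48-hour compound exposure of cells in 96-well plates, five concentrations, linear interpolation of endpoints. TGI is the concentration that stops growth completely.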

How the values were obtained:
Test in all cases: NCI anticancer screen, dose series, 48 h
[1] = tested on: BT-549 breast
[2] = tested on: MCF7 breast
[3] = tested on: KM12 colon
[4] = tested on: MALME-3M melanoma
[5] = tested on: OVCAR-4 ovarian
[6] = tested on: A498 renal
[7] = tested on: CAKI-1 renal
[8] = tested on: MOLT-4 leukemia
[9] = tested on: HOP-62 NSCLC
[10] = tested on: NCI-H23 lung
[11] = tested on: SK-OV-3 ovarian
[12] = tested on: SK-MEL-2 melanoma
[13] = tested on: NCI-H460 lung
[14] = tested on: UACC-257 melanoma
[15] = tested on: MDA-MB-231 breast
[16] = tested on: CCRF-CEM leukemia
[17] = tested on: HCC-2998 colon
[18] = tested on: IGROV1 ovarian
[19] = tested on: NCI/ADR-RES ovarian
[20] = tested on: OVCAR-8 ovarian
[21] = tested on: NCI-H226 lung
[22] = tested on: SK-MEL-5 melanoma
[23] = tested on: PC-3 prostate
[24] = tested on: MDA-MB-435
[25] = tested on: HCT-15 colon
[26] = tested on: LOX IMVI melanoma
[27] = tested on: SNB-19 CNS
[28] = tested on: COLO 205 colon
[29] = tested on: DU-145 prostate
[30] = tested on: TK-10 renal
[31] = tested on: ACHN renal
[32] = tested on: U251 CNS
[33] = tested on: A549 NSCLC
[34] = tested on: MDA-N
[35] = tested on: HT29 colon
[36] = tested on: HOP-92 NSCLC
[37] = tested on: SW-620 colon
[38] = tested on: UO-31 renal
[39] = tested on: EKVX NSCLC
[40] = tested on: M14 melanoma
[41] = tested on: T-47D breast
[42] = tested on: SF-295 CNS
[43] = tested on: K-562 leukemia
[44] = tested on: OVCAR-3 ovarian
[45] = tested on: RXF 393 renal
[46] = tested on: HS 578T breast
[47] = tested on: SK-MEL-28 melanoma
[48] = tested on: 786-0 renal
[49] = tested on: SN12C renal
[50] = tested on: UACC-62 melanoma
[51] = tested on: OVCAR-5 ovarian
[52] = tested on: SF-268 CNS
[53] = tested on: HCT-116 colon
[54] = tested on: NCI-H522 lung
[55] = tested on: SNB-75 CNS
[56] = tested on: RPMI-8226 leukemia
[57] = tested on: SF-539 CNS

**Q.** With `O=[N+]([O-])c1ccc2c(c1)nc(Cc1ccccc1)n2C[C@@H]1CCCN2CCCCC12` (some centres undefined) as the compound, how does the TGI [1] read?
**A.** The TGI was > 100 µM.

**Q.** And the TGI [2]?
**A.** The TGI was > 100 µM.

**Q.** What about the TGI [3] of the same compound?
**A.** Its TGI is 55.4 µM.

**Q.** And the TGI [4]?
**A.** The TGI was 29.2 µM.

**Q.** What about the TGI [5] of the same compound?
**A.** The TGI was > 100 µM.

**Q.** And the TGI [6]?
**A.** The TGI was 33.2 µM.

**Q.** And the TGI [7]?
**A.** Its TGI is > 100 µM.

**Q.** What about the TGI [8] of the same compound?
**A.** The TGI was 47.6 µM.

**Q.** And the TGI [9]?
**A.** The TGI was > 100 µM.

**Q.** And the TGI [10]?
**A.** Its TGI is > 100 µM.

**Q.** What about the TGI [11] of the same compound?
**A.** Its TGI is > 100 µM.

**Q.** And the TGI [12]?
**A.** Its TGI is 44.8 µM.

**Q.** And the TGI [13]?
**A.** The TGI was > 100 µM.

**Q.** What about the TGI [14] of the same compound?
**A.** Its TGI is 31.4 µM.

**Q.** What about the TGI [15] of the same compound?
**A.** Its TGI is 95.1 µM.

**Q.** And the TGI [16]?
**A.** The TGI was 50.2 µM.

**Q.** And the TGI [17]?
**A.** The TGI was 33.2 µM.

**Q.** What about the TGI [18] of the same compound?
**A.** Its TGI is > 100 µM.

**Q.** What about the TGI [19] of the same compound?
**A.** Its TGI is > 100 µM.

**Q.** And the TGI [20]?
**A.** Its TGI is > 100 µM.

**Q.** And the TGI [21]?
**A.** Its TGI is > 100 µM.

**Q.** What about the TGI [22] of the same compound?
**A.** The TGI was 31.4 µM.

**Q.** What about the TGI [23] of the same compound?
**A.** The TGI was > 100 µM.

**Q.** And the TGI [24]?
**A.** Its TGI is 35.5 µM.

**Q.** What about the TGI [25] of the same compound?
**A.** Its TGI is > 100 µM.

**Q.** And the TGI [26]?
**A.** Its TGI is 60.2 µM.

**Q.** And the TGI [27]?
**A.** Its TGI is > 100 µM.

**Q.** What about the TGI [28] of the same compound?
**A.** The TGI was 37.4 µM.

**Q.** And the TGI [29]?
**A.** The TGI was > 100 µM.

**Q.** And the TGI [30]?
**A.** The TGI was > 100 µM.

**Q.** And the TGI [31]?
**A.** Its TGI is > 100 µM.

**Q.** And the TGI [32]?
**A.** The TGI was > 100 µM.

**Q.** What about the TGI [33] of the same compound?
**A.** The TGI was > 100 µM.

**Q.** And the TGI [34]?
**A.** Its TGI is 38.6 µM.

**Q.** And the TGI [35]?
**A.** The TGI was 49.2 µM.

**Q.** And the TGI [36]?
**A.** Its TGI is > 100 µM.

**Q.** And the TGI [37]?
**A.** The TGI was > 100 µM.

**Q.** What about the TGI [38] of the same compound?
**A.** Its TGI is 22.8 µM.

**Q.** And the TGI [39]?
**A.** Its TGI is 62 µM.

**Q.** What about the TGI [40] of the same compound?
**A.** Its TGI is 33.1 µM.

**Q.** And the TGI [41]?
**A.** Its TGI is > 100 µM.

**Q.** And the TGI [42]?
**A.** Its TGI is 37.9 µM.

**Q.** And the TGI [43]?
**A.** Its TGI is 49.1 µM.

**Q.** What about the TGI [44] of the same compound?
**A.** The TGI was > 100 µM.

**Q.** And the TGI [45]?
**A.** Its TGI is 59.6 µM.

**Q.** What about the TGI [46] of the same compound?
**A.** Its TGI is > 100 µM.

**Q.** And the TGI [47]?
**A.** The TGI was 38.3 µM.

**Q.** What about the TGI [48] of the same compound?
**A.** Its TGI is 47.6 µM.

**Q.** What about the TGI [49] of the same compound?
**A.** Its TGI is > 100 µM.

**Q.** What about the TGI [50] of the same compound?
**A.** Its TGI is 36.3 µM.

**Q.** And the TGI [51]?
**A.** Its TGI is > 100 µM.

**Q.** What about the TGI [52] of the same compound?
**A.** Its TGI is > 100 µM.

**Q.** And the TGI [53]?
**A.** The TGI was > 100 µM.

**Q.** And the TGI [54]?
**A.** Its TGI is 80 µM.

**Q.** And the TGI [55]?
**A.** The TGI was > 100 µM.

**Q.** How did the TGI [1] turn out when `Cc1oc2nc1C(=O)NCc1nc(cs1)C(=O)N[C@H](C(C)C)c1nc(cs1)C(=O)N[C@H]2C` was run?
**A.** The TGI was > 100 µM.

**Q.** What about the TGI [2] of the same compound?
**A.** Its TGI is > 100 µM.

**Q.** And the TGI [3]?
**A.** Its TGI is > 100 µM.

**Q.** And the TGI [4]?
**A.** Its TGI is > 100 µM.

**Q.** And the TGI [56]?
**A.** The TGI was 54.4 µM.

**Q.** And the TGI [5]?
**A.** Its TGI is > 100 µM.

**Q.** And the TGI [6]?
**A.** The TGI was > 100 µM.

**Q.** What about the TGI [7] of the same compound?
**A.** The TGI was > 100 µM.

**Q.** What about the TGI [8] of the same compound?
**A.** The TGI was > 100 µM.

**Q.** And the TGI [9]?
**A.** The TGI was > 100 µM.

**Q.** What about the TGI [10] of the same compound?
**A.** Its TGI is > 100 µM.

**Q.** And the TGI [11]?
**A.** The TGI was > 100 µM.

**Q.** What about the TGI [13] of the same compound?
**A.** Its TGI is > 100 µM.

**Q.** And the TGI [14]?
**A.** The TGI was > 100 µM.

**Q.** And the TGI [15]?
**A.** Its TGI is > 100 µM.

**Q.** What about the TGI [16] of the same compound?
**A.** Its TGI is > 100 µM.

**Q.** And the TGI [17]?
**A.** Its TGI is > 100 µM.

**Q.** And the TGI [18]?
**A.** Its TGI is > 100 µM.

**Q.** What about the TGI [19] of the same compound?
**A.** Its TGI is > 100 µM.

**Q.** What about the TGI [20] of the same compound?
**A.** The TGI was > 100 µM.

**Q.** What about the TGI [21] of the same compound?
**A.** The TGI was > 100 µM.

**Q.** And the TGI [22]?
**A.** The TGI was > 100 µM.

**Q.** And the TGI [23]?
**A.** The TGI was > 100 µM.

**Q.** What about the TGI [24] of the same compound?
**A.** The TGI was > 100 µM.

**Q.** What about the TGI [25] of the same compound?
**A.** The TGI was > 100 µM.

**Q.** And the TGI [27]?
**A.** Its TGI is > 100 µM.

**Q.** And the TGI [28]?
**A.** The TGI was > 100 µM.

**Q.** And the TGI [29]?
**A.** The TGI was > 100 µM.

**Q.** And the TGI [31]?
**A.** Its TGI is > 100 µM.

**Q.** What about the TGI [32] of the same compound?
**A.** Its TGI is > 100 µM.

**Q.** What about the TGI [33] of the same compound?
**A.** The TGI was > 100 µM.

**Q.** And the TGI [34]?
**A.** Its TGI is > 100 µM.

**Q.** What about the TGI [35] of the same compound?
**A.** The TGI was > 100 µM.

**Q.** And the TGI [36]?
**A.** The TGI was > 100 µM.

**Q.** And the TGI [37]?
**A.** Its TGI is > 100 µM.

**Q.** And the TGI [38]?
**A.** Its TGI is > 100 µM.

**Q.** And the TGI [39]?
**A.** Its TGI is > 100 µM.

**Q.** And the TGI [40]?
**A.** Its TGI is > 100 µM.

**Q.** What about the TGI [41] of the same compound?
**A.** The TGI was > 100 µM.

**Q.** And the TGI [42]?
**A.** The TGI was 99.4 µM.

**Q.** And the TGI [43]?
**A.** The TGI was > 100 µM.

**Q.** What about the TGI [44] of the same compound?
**A.** The TGI was > 100 µM.

**Q.** And the TGI [45]?
**A.** Its TGI is > 100 µM.

**Q.** And the TGI [46]?
**A.** Its TGI is > 100 µM.

**Q.** And the TGI [47]?
**A.** Its TGI is > 100 µM.

**Q.** What about the TGI [48] of the same compound?
**A.** Its TGI is > 100 µM.

**Q.** What about the TGI [49] of the same compound?
**A.** The TGI was > 100 µM.

**Q.** What about the TGI [50] of the same compound?
**A.** Its TGI is > 100 µM.

**Q.** What about the TGI [51] of the same compound?
**A.** The TGI was > 100 µM.

**Q.** And the TGI [52]?
**A.** Its TGI is > 100 µM.

**Q.** And the TGI [53]?
**A.** Its TGI is > 100 µM.

**Q.** And the TGI [54]?
**A.** The TGI was 87.4 µM.

**Q.** And the TGI [57]?
**A.** The TGI was > 100 µM.

**Q.** What about the TGI [55] of the same compound?
**A.** Its TGI is > 100 µM.
